Data: PubChem BioAssay (NCI)
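Following 48 hours of exposure in 96-well plates, responses at five concentrations were used to interpolate endpoints linearly. TGI: concentration producing complete growth inhibition.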

Assays:
Experiment in all cases: inhibition of tumour cell growth, NCI panel, 48 h
A549 NSCLC = test system: A549 NSCLC
BT-549 breast = test system: BT-549 breast
COLO 205 colon = test system: COLO 205 colon
EKVX NSCLC = test system: EKVX NSCLC
HOP-62 NSCLC = test system: HOP-62 NSCLC
IGROV1 ovarian = test system: IGROV1 ovarian
MCF7 breast = test system: MCF7 breast
MDA-MB-231 breast = test system: MDA-MB-231 breast
NCI-H522 lung = test system: NCI-H522 lung
PC-3 prostate = test system: PC-3 prostate
SF-268 CNS = test system: SF-268 CNS
SK-MEL-2 melanoma = test system: SK-MEL-2 melanoma
SNB-75 CNS = test system: SNB-75 CNS

Compound | TGI (A549 NSCLC) [µM] | TGI (BT-549 breast) [µM] | TGI (COLO 205 colon) [µM] | TGI (EKVX NSCLC) [µM] | TGI (HOP-62 NSCLC) [µM] | TGI (IGROV1 ovarian) [µM] | TGI (MCF7 breast) [µM] | TGI (MDA-MB-231 breast) [µM] | TGI (NCI-H522 lung) [µM] | TGI (PC-3 prostate) [µM] | TGI (SF-268 CNS) [µM] | TGI (SK-MEL-2 melanoma) [µM] | TGI (SNB-75 CNS) [µM]
O=C1Nc2ccccc2/C1=N/N1C(=O)/C(=C/c2ccccc2S)N=C1c1ccccc1 | > 100 | > 100 | > 100 | > 100 | > 100 | > 100 | > 100 | > 100 | > 100 | > 100 | > 100 | > 100 | > 100
CCOC(=O)CNC(=O)CNC(=O)CNC(=O)CNNc1c(OCc2ccccc2)c(=O)c1=O | > 100 | > 100 | > 100 | > 100 | > 100 | > 100 | > 100 | > 100 | > 100 | > 100 | > 100 | > 100 | > 100
O=C1/C(=C/c2ccc(OC(=O)c3ccc(Cl)cc3)cc2)CCC/C1=C\c1ccc(OC(=O)c2ccc(Cl)cc2)cc1 | > 100 | > 100 | > 100 | > 100 | > 100 | > 100 | > 100 | > 100 | > 100 | > 100 | > 100 | > 100 | 60.8
COC(=O)/C(C#N)=C(/NCc1ccccc1)Nc1ccccc1 | > 100 | > 100 | > 100 | > 100 | > 100 | > 100 | > 100 | > 100 | > 100 | > 100 | > 100 | > 100 | > 100
O=C1OC(C2Cc3ccc4c(c3C2=O)CCCC4)c2ccccc21 (stereo not drawn) | > 100 | > 100 | > 100 | > 100 | > 100 | > 100 | > 100 | > 100 | > 100 | > 100 | > 100 | > 100 | > 100
COc1cc(OC)c2nc(C)c3c(c2c1)OCC3 | > 100 | > 100 | > 100 | > 100 | > 100 | > 100 | > 100 | 52.9 | > 100 | > 100 | > 100 | > 100 | > 100
